Source: US20250250559A1, “METHOD TO ANALYZE AND OPTIMIZE GENE EDITING MODULES AND DELIVERY APPROACHES” (Hoffmann-La Roche Inc., priority 2016, published 2025)
“And” between values parts separate entries of the source, which are not always exact repeats. Equal entries are not always repeated.

Experiments:
Type in all cases: cell-based, human
[1] = system: DPH1 gene; test: DT resistant colony count after DPH1 gene editing (homozygous gene inactivation); settings: for # of DT resistant colonies (20,000 seeded cells) / # of DT resistant colonies (20,000 seeded cells) (unheaded second sub-column: mean): DPH1 (gRNA length), TF eff. = 31%; for # of DT resistant colonies (20,000 seeded cells): MCF7, individual samples A-D
Method: (§1) MCF7 cells (Brooks, et al. 1973) were originally obtained from ATCC (subsequently propagated in an in-house cell bank) and maintained in RPMI […] medium supplemented with 10% FCS, 2 mM L-Glutamine and penicillin/streptomycin at 37° C. and 85% humidity. For transfection of plasmids harboring gene-editing modules, 3,000,000 cells were seeded in a 10 cm diameter culture dish and cultivated at 37° C. and humidified 5% CO2. 24 h after seeding, cells were transfected with 20 μg total DNA using JetPEI (Polyplus) according to the manufacturer's protocol but with an N/P ratio of 6:1. Transfection efficiency was determined after 24 h by flow cytometry (FACS Calibur, BD biosciences) of cells that were transfected with a modified eGFP expression plasmid (Zhang, et al. 1996).
(§2) Plasmids encoding CRISPR/Cas9 gene-editing entities (i.e. knock-out and integration systems) against Dph1 (gRNA target sequence: […] (SEQ ID NO: 01) derived from RefSeq: NM_001383) and Dph2 (gRNA target sequence: […] (SEQ ID NO: 02) derived from RefSeq: NM_001039589, NM_001384), and scrambled control (gRNA sequence: […] (SEQ ID NO: 03)) were obtained from OriGene. This system comprises one plasmid expressing a ˜100 nt gRNA under control of a U6 promoter as well as Cas9 nuclease under control of a CMV promoter and a Donor plasmid with a promoter-less GFP/PM expression cassette flanked by homologous arms to the target gene (Dph1 or Dph2). Additional Dph1 gRNA sequence variants of different sizes (OriGene) […]
(§3) MCF7 cells which have all chromosomal copies of DPH1 or DPH2 inactivated are resistant to diphtheria toxin (Stahl, et al. 2015). Thus, occurrence and frequency of toxin resistant cells/colonies upon CRISPR/Cas inflicted gene inactivation provides a measure for efficiency of inactivation of all gene copies. Therefore, MCF/cells were transfected as described in Example 1 with (i) a GFP expression plasmid as transfection control, (ii) the CRISPR/Cas9 Dph1 or Dph2 knock-out/integration system and (iii) knock-out/integration entities containing a scrambled gRNA to determine Cas9 independent integration frequencies. After determination of transfection efficiency, cells were seeded in 6-well plates. For quantification of homozygous knock-out events by DT 20000 cells were seeded and for quantification of integration events by PM or both events 40000 cells were seeded. RPMI medium was exchanged by RPMI medium containing DT or PM or both toxins 3 days after cell seeding. Exchange of medium was repeated every 2-3 days until all dead cells were removed from the plates and actively growing colonies could be detected via microscopic inspection. Thereafter (between day 12 and day 14 after start of toxin exposure), cells were washed 3 times with PBS and subsequently stained with ice cold methylene blue (0.2% in 50% EtOH). Methylene blue solution was subsequently removed and the plates were carefully washed under running water. Finally, cell colonies were counted under the microscope with a 5 mm grid foil.
MCF7 cells which have all chromosomal copies of DPH1 inactivated are DT resistant. Thus, occurrence and frequency of DTr colonies upon ZFN inflicted gene inactivation and/or cassette integration provides a measure for efficacy of inactivation of all gene copies. The ZFN recognition sequence ([…], cleavage site, SEQ ID NO: 10) are derived from NM_001383.3 (DPH1-wt) and were obtained from Sigma Aldrich. A PAC integration cassette for this position was obtained from OriGene. MCF7 cells were transfected as described above with (i) a GFP expression plasmid, (ii) the plasmid encoding DPH1-targeting ZFN and (iii) the DPH1-targeting PAC-integration cassette. After determination of transfection efficiency, cells were seeded in 6-well plates. For quantification of homozygous knock-out events (DTr) 20,000 cells were seeded, 40,000 cells for quantification of integration events (PMr) or double resistances. […]

[2] = system: DPH1 gene; test: PM resistant colony count after DPH1 gene editing (PAC cassette integration); settings: for # of PM resistant colonies (40,000 seeded cells) / # of PM resistant colonies (40,000 seeded cells) (unheaded second sub-column: mean): DPH1 (gRNA length), TF eff. = 31%; for # of PM resistant colonies (40,000 seeded cells): MCF7, individual samples A-D; for integration efficacy in dependence on gRNA length: PMr colonies
Method: as §1, §2
as §3, with “For quantification of homozygous knock-out events by DT 20000 cells were seeded and for quantification of integration events by PM or both events 40000 cells were seeded.” left out
CRISPR/Cas module for targeted integration contains a puromycin (PM) resistance gene expression cassette without promoter to avoid transient expression. Thus, detection of integration of recombinant sequences into the genome was detected by determining sensitivity of cells towards PM. A concentration of […] PM (which quantitatively eliminates wildtype MCF7 cells) was applied to select MCF7 cells with stably integrated expression cassettes. PM-resistant colonies selected with the same procedure as described above for the DT selection and visualized and quantified (between 12 and 14 days after start of selection) in the same manner as described above for toxin resistant colonies. Number of PM resistant colonies obtained with non-target guide sequences (scrambled gRNA, FIG. 1) reflect the nonspecific integration background. Increase in colonies (above nonspecific background) obtained with target-gene gRNAs which are PM-resistant but toxin sensitive reflect integration into just one target allele, leaving the other dph1 or dph2 allele unaffected. […]

[3] = system: DPH1 gene; test: DT + PM double resistant colony count after DPH1 gene editing (integration with inactivation); settings: DPH1 (gRNA length), TF eff. = 31%; for # of DT + PM resistant colonies (40,000 seeded cells): MCF7, individual samples A-D
Method: MCF7 cells (Brooks, et al. 1973) were originally obtained from ATCC (subsequently propagated in an in-house cell bank) and maintained in RPMI 1641 medium supplemented with 10% FCS, 2 mM L-Glutamine and penicillin/streptomycin at 37° C. and 85% humidity. For transfection of plasmids harboring gene-editing modules, 3,000,000 cells were seeded in a 10 cm diameter culture dish and cultivated at 37° C. and humidified 5% CO2. 24 h after seeding, cells were transfected with 20 μg total DNA using JetPEI (Polyplus) according to the manufacturer's protocol but with an N/P ratio of 6:1. Transfection efficiency was determined after 24 h by flow cytometry (FACS Calibur, BD biosciences) of cells that were transfected with a modified eGFP expression plasmid (Zhang, et al. 1996).
CRISPR/Cas module for targeted integration contains a puromycin (PM) resistance gene expression cassette without promoter to avoid transient expression. Thus, detection of integration of recombinant sequences into the genome was detected by determining sensitivity of cells towards PM. A concentration of 500 ng/μL PM (which quantitatively eliminates wildtype MCF7 cells) was applied to select MCF7 cells with stably integrated expression cassettes. PM-resistant colonies selected with the same procedure as described above for the DT selection and visualized and quantified (between 12 and 14 days after start of selection) in the same manner as described above for toxin resistant colonies. Number of PM resistant colonies obtained with non-target guide sequences (scrambled gRNA, FIG. 1) reflect the nonspecific integration background. Increase in colonies (above nonspecific background) obtained with target-gene gRNAs which are PM-resistant but toxin sensitive reflect integration into just one target allele, leaving the other dph1 or dph2 allele unaffected. PM resistant colonies that are also DT resistant have the expression cassette integrated into at least target allele and the other allele either inactivated or inactivated accompanied by yet another integration event.

[4] = listed as 26 mer Dph1 CRISPR Cas9 gRNA
[5] = listed as 26 mer Dph1 CRISPR/Cas9 gRNA
[6] = listed as 22 mer Dph1 CRISPR Cas9 gRNA
[7] = listed as 18 mer Dph1 CRISPR Cas9 gRNA
[8] = listed as 24 mer Dph1 CRISPR Cas9 gRNA
[9] = listed as 16 mer Dph1 CRISPR Cas9 gRNA

Substance	# of DT resistant colonies (20,000 seeded cells) [1]	# of DT resistant colonies (20,000 seeded cells) (unheaded second sub-column: mean) [1]	# of PM resistant colonies (40,000 seeded cells) [2]	# of PM resistant colonies (40,000 seeded cells) (unheaded second sub-column: mean) [2]	integration efficacy in dependence on gRNA length [2]	# of DT + PM resistant colonies (40,000 seeded cells) [3]	# of DT + PM resistant colonies (40,000 seeded cells) (unheaded second sub-column: mean) [3]	also measured
26 mer SpCas9 Dph1 gRNA: Dph1 gRNA sequence variant GCGGAGCAGGGCGGCCGAGACGGCCC with SpCas9 (chemistry not given here)	161 and 155 and 176 and 187	170	12 (2×) and 11 and 9	11	Targeted integration clearly above background was observed	0 (2×) and 1 (2×)	1	# of DT resistant colonies (20,000 seeded cells) [1, 4]: 161 and 155 and 176; # of DT resistant colonies (20,000 seeded cells) [1, 5]: 187; # of PM resistant colonies (40,000 seeded cells) [2, 4]: 12 (2×) and 11; # of PM resistant colonies (40,000 seeded cells) [2, 5]: 9; # of DT + PM resistant colonies (40,000 seeded cells) [3, 4]: 0 (2×) and 1; # of DT + PM resistant colonies (40,000 seeded cells) [3, 5]: 1
22 mer SpCas9 Dph1 gRNA: Dph1 gRNA sequence variant AGCAGGGCGGCCGAGACGGCCC with SpCas9 (chemistry not given here)	278 and 292 and 297 and 267	284	14 and 12 and 11 and 15	13	Targeted integration clearly above background was observed	6 and 5 (2×) and 4	5	# of DT resistant colonies (20,000 seeded cells) [1, 6]: 278 and 292 and 297 and 267; # of PM resistant colonies (40,000 seeded cells) [2, 6]: 14 and 12 and 11 and 15; # of DT + PM resistant colonies (40,000 seeded cells) [3, 6]: 6 and 5 (2×) and 4
14 mer SpCa9 Dph1 gRNA: Dph1 gRNA sequence variant GGCCGAGACGGCCC with SpCas9 (listed as DNA, chemistry not given here)	0	0	6 and 10 and 8 and 9	8	not exceeding scrambled control background levels	0	0	DPH1 inactivation efficacy in dependence on gRNA length ([1]; DTr colonies): below detection levels; # of PM resistant colonies (40,000 seeded cells) ([2]; listed as 14 mer Dph1 CRISPR Cas9 gRNA): 6 and 10 and 8 and 9
18 mer SpCas9 Dph1 gRNA: Dph1 gRNA sequence variant GGGCGGCCGAGACGGCCC with SpCas9 (chemistry not given here)	284 and 299 and 321 and 324	307	19 and 25 and 27 and 22	23	Targeted integration clearly above background was observed	10 and 12 and 7 and 11	10	# of DT resistant colonies (20,000 seeded cells) [1, 7]: 284 and 299 and 321 and 324; # of PM resistant colonies (40,000 seeded cells) [2, 7]: 19 and 25 and 27 and 22; # of DT + PM resistant colonies (40,000 seeded cells) [3, 7]: 10 and 12 and 7 and 11
24 mer SpCas9 Dph1 gRNA: Dph1 gRNA sequence variant GGAGCAGGGCGGCCGAGACGGCCC with SpCas9 (chemistry not given here)	237 and 252 and 228 and 211	232	13 and 12 and 11 and 15	13	Targeted integration clearly above background was observed	2 and 4 and 3 (2×)	3	# of DT resistant colonies (20,000 seeded cells) [1, 8]: 237 and 252 and 228 and 211; # of PM resistant colonies (40,000 seeded cells) [2, 8]: 13 and 12 and 11 and 15; # of DT + PM resistant colonies (40,000 seeded cells) [3, 8]: 2 and 4 and 3 (2×)
16 mer SpCas9 Dph1 gRNA: Dph1 gRNA sequence variant GCGGCCGAGACGGCCC with SpCas9 (chemistry not given here)	275 and 298 and 292 and 271	284	21 and 26 (2×) and 25	25	Targeted integration clearly above background was observed	7 and 9 (2×) and 10	8	# of DT resistant colonies (20,000 seeded cells) [1, 9]: 275 and 298 and 292 and 271; # of PM resistant colonies (40,000 seeded cells) [2, 9]: 21 and 26 (2×) and 25; # of DT + PM resistant colonies (40,000 seeded cells) [3, 9]: 7 and 9 (2×) and 10
